{"source": "patent EP4701641B1", "about": "“5-AMINO-2,3-DIHYDRO-1,4-PHTHAL[…] THE PROPHYLAXIS AND TREATMENT OF […]” (MetrioPharm AG, priority 2023, dated 2025)", "key": {"SARS-CoV-2": {"system": "SARS-CoV-2", "conditions": "SARS-CoV-2 infected cells; from WO 2021/249667; cited from earlier work"}, "D-dimer": {"system": "D-dimer", "conditions": "for D-dimer concentration (median of the group): plasma", "from_the_text": "The study was randomized, double-blind, and placebo-controlled, with enrollment at 20 IEC (independent ethics committee)-approved sites across six countries (Bulgaria, France, Hungary, Italy Romania, Spain); a list of all participating sites is published on clinicaltrials.gov. (NCT04932941). This study was partially funded by the COVID-19 Horizon Europe work programme (Project No.: 101046182). The funder of the study had no role in study design, data collection, data analysis, data interpretation, or writing of the report.\nFurther details on the in- and exclusion criteria are available on cliniclatrials.gov NCT04932941.\nStratification factors included baseline COVID-19 severity and age-class (aged ≤ 65 years versus > 65 years).\nPatients were treated for 28 days. […] These patients were discharged from the hospital before and received medication (verum or placebo) for continuing self-treatment for the remaining time at home. After 60 days there was a follow-up visit.\nThe D-dimer level is an important prognostic marker for COVID-19 severity. An elevated D-dimer level is associated with thromboembolic complications. For monitoring the development of this biomarker throughout the study blood samples were taken at Days 1, 7, 14, 21, 28 and 60. The D-dimer concentration was determined (PPD Central Lab, Zaventem, Belgium) from the plasma by means of monoclonal antibodies quantified in an ELISA (cf. Olson (2015) Adv Clin Chem 69: 1 - 46; Johnson et al. (2019) Am J Hematol 94: 833-839)."}, "[1]": {"system": "hospitalized patients with moderate to severe COVID-19"}, "[2]": {"system": "Coronary artery smooth muscle cells", "conditions": "added 1 hour before stimulation with IL-1β, TNF-α and IFN-γ, 48 hours in culture, triplicates averaged", "description": "Coronary artery smooth muscle cells pooled from human donors (n = 3) were commercially acquired and cultured according to the recommendations of the manufacturer. They were stimulated with IL-1β, TNF-α and IFN-γ to emulate conditions of vascular inflammation. The […] were cultured in 96 well-plates until confluence. Details are described in Kunkel et al. (2004) FASEB J 18: 1279-1281). […] The substance was added at the indicated concentration 1 hour before stimulation and remained in culture for 48 hours. Each plate contained positive and negative controls (non-stimulated cells) as well as vehicle controls (buffer solution). Direct ELISA (enzyme-linked immunosorbent assay) was used to measure thrombomodulin levels. Soluble factors from supernatants were quantified using capture ELISA.\nMeasurements were carried out in triplicates which were then averaged and divided by the average of vehicle control samples. Vehicle control samples were taken as 100%."}}, "note": "Read-outs that look alike come from different tables or passages of the source.", "data": [{"smiles": "Nc1cccc2c(=O)[nH][nH]c(=O)c12.[Na]", "note": "[5-amino-2,3-dihydro-1,4-phthalazinedione sodium salt]", "values": [{"measurement": "replication of the virus", "setting": "SARS-CoV-2", "result": "suppress dose-dependently"}, {"measurement": "D-dimer concentration (median of the group)", "setting": "D-dimer; day 60 (follow-up visit)", "result": 138.0, "unit": "ng/mL DDU"}, {"measurement": "modelled effect on D-dimer levels compared to placebo", "setting": "D-dimer; post-hoc analysis, modelled, p<0.001, Fig. 1", "result": "significant decrease"}, {"measurement": "D-dimer concentration (median of the group)", "setting": "D-dimer; treatment day 1, 300 mg BID plus SoC", "result": 235.5, "unit": "ng/mL DDU"}, {"measurement": "D-dimer concentration (median of the group)", "setting": "D-dimer; treatment day 7, 300 mg BID plus SoC", "result": 205.0, "unit": "ng/mL DDU"}, {"measurement": "D-dimer concentration (median of the group)", "setting": "D-dimer; treatment day 14, 300 mg BID plus SoC", "result": 171.0, "unit": "ng/mL DDU"}, {"measurement": "D-dimer concentration (median of the group)", "setting": "D-dimer; treatment day 21, 300 mg BID plus SoC", "result": 208.0, "unit": "ng/mL DDU"}, {"measurement": "D-dimer concentration (median of the group)", "setting": "D-dimer; treatment day 28, 300 mg BID plus SoC", "result": 172.0, "unit": "ng/mL DDU"}, {"measurement": "disease resolution by Day 14 (patients)", "setting": "[1]; 300 mg BID plus SoC, placebo group 31/43", "result": "69/82"}, {"measurement": "effect on hemostasis (clinical parameters or adverse side effects)", "setting": "[1]; clinical study in COVID-19 patients", "result": "no evidence"}, {"measurement": "thrombomodulin release (vehicle control = 100%)", "setting": "[2]; 62.5 µM", "result": 127.4, "unit": "%"}, {"measurement": "thrombomodulin release (vehicle control = 100%)", "setting": "[2]; 250 µM", "result": 115.1, "unit": "%"}, {"measurement": "thrombomodulin release (vehicle control = 100%)", "setting": "[2]; 1 mM", "result": 159.6, "unit": "%"}, {"measurement": "thrombomodulin release (vehicle control = 100%)", "setting": "[2]; 4 mM", "result": 255.9, "unit": "%"}]}]}
